Experimental data reported in patent US7803930B2, “Antisense modulation of apolipoprotein B-expression” (Isis Pharmaceuticals, Inc., priority 2002, dated 2010).
In the oligonucleotide strings, read from the 5' end, every base follows the letter of its sugar. An asterisk marks phosphorothioate; unmarked linkages are phosphodiester. Other units and linkages are bracketed, terminal groups are in braces. A string of capitals states the bases alone. e = 2'-O-(2-methoxyethyl) (MOE); [5mC] = 5-methylcytosine; d = 2'-deoxy (DNA)

What was measured:
apolipoprotein B mRNA [1] = experiment: ob/ob mice (Example 50): apolipoprotein B mRNA levels in liver; format: in vivo, mouse; conditions: high fat high cholesterol diet, 50 mg/kg i.p. twice a week, six weeks
In short: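 Ob/ob mice on 60% kcal fat diet with 0.15% cholesterol received 50 mg/kg oligonucleotide i.p. twice weekly for six weeks, with saline and control oligonucleotides.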

apolipoprotein B mRNA [2] = experiment: ApoE knockout mice (Example 28): target mRNA levels in liver; format: in vivo, mouse; conditions: high fat diet, six weeks
From the text: Female ApoE knockout mice ranged in age from 5 to 7 weeks and were placed on a normal diet for 2 weeks before study initiation. ApoE knockout mice were then fed ad libitum a 60% fat diet, with 0.15% added cholesterol to induce dyslipidemia and obesity. Control animals were maintained on a high-fat diet with no added cholesterol. […]
At study termination and forty eight hours after the final injections, animals were sacrificed and evaluated for target mRNA levels in liver by RT-PCR methods verified by Northern Blot analysis, glucose levels, cholesterol and lipid levels by HPLC separation methods and triglyceride and liver enzyme levels (performed by LabCorp Preclinical Services; San Diego, Calif.).
Data are normalized to saline controls.

apolipoprotein B mRNA [3] = experiment: High fat fed C57BL/6 mice, 6 week timecourse: target mRNA levels in liver; format: in vivo, mouse; conditions: six weeks
Description: Male C57BL/6 mice (n=8) receiving a high fat diet (60% kcal fat) were evaluated over the course of 6 weeks for the effects of treatment with the antisense oligonucleotide, ISIS 147764. Control animals received saline treatment (50 mg/kg). A subset of animals received a daily oral dose (20 mg/kg) atorvastatin calcium (Lipitor®, Pfizer Inc.). All mice, except atorvastatin-treated animals, were dosed intraperitoneally every three days (twice a week), after fasting overnight, with 5, 25, 50 mg/kg ISIS 147764 (SEQ ID No: 109) or saline (50 mg/kg) for six weeks. Serum cholesterol and lipoproteins were analyzed at 0, 2 and 6 week interim timepoints. At study termination, animals were sacrificed 48 hours after the final injections and evaluated for levels of target mRNA levels in liver, cholesterol, lipoprotein, triglyceride, liver enzyme (AST and ALT) and serum glucose levels as well as body, liver, spleen and fat pad weights.
Male C57BL/6 mice (n=8) receiving a high fat diet (60% kcal fat) were evaluated over the course of 6 weeks for the effects of ISIS 147764 on mRNA expression. Control animals received saline treatment (50 mg/kg). Mice were dosed intraperitoneally every three days (twice a week), after fasting overnight, with 5, 25, 50 mg/kg ISIS 147764 (SEQ ID No: 109) or saline (50 mg/kg) for six weeks. At study termination, animals were sacrificed 48 hours after the final injections and evaluated for levels of target mRNA levels in liver.

[4] = tested on: mouse apolipoprotein B protein; experiment: Transgenic mice dosing study (Example 52): immunoblot of mouse apolipoprotein B protein in serum and liver; format: in vivo
[5] = tested on: human apolipoprotein B protein (apolipoprotein B-100 and apolipoprotein B-48); experiment: Transgenic mice dosing study (Example 52): immunoblot of human apolipoprotein B protein in serum and liver; format: in vivo, human transgene in mouse
Description: Apolipoprotein B protein in serum was also assessed by immunoblot analysis using an antibody directed to human apolipoprotein B protein (US Biologicals, Swampscott, Mass.).

[6] = Transgenic mice dosing study (Example 52): serum ALT and AST levels; format: in vivo, mouse; conditions: 10 or 25 mg/kg
apolipoprotein B mRNA [7] = experiment: Long-term study in lean Cynomolgous monkeys (Example 64): apolipoprotein B mRNA in liver; format: in vivo, Cynomolgous monkey; conditions: for apolipoprotein B expression % change normalized to saline: liver, one month
Description: Male and female Cynomologous monkeys are treated with 2, 4 or 12 mg/kg of ISIS 301012 intravenously or 2 or 20 mg/kg subcutaneously at a frequency of every two days for the first week, and every 4 days thereafter, for 1 and 3 month treatment periods. Saline-treated animals serve as controls. Each treatment group includes 2 to 3 animals of each sex.
At a one month interval and at the 3 month study termination, the animals are sacrificed and evaluated for target expression in liver, lipid levels in serum and indicators of toxicity. Liver samples are procured, RNA is isolated and apolipoprotein B mRNA expression is measured by real-time PCR as described in other examples herein. Serum lipids, including total cholesterol, LDL-cholesterol, HDL-cholesterol and triglycerides, are evaluated by routine clinical analysis using an Olympus Clinical Analyzer (Olympus America Inc., Melville, N.Y.). Ratios of LDL-cholesterol to HDL-cholesterol and total cholesterol to HDL-cholesterol are also calculated. Analyses of serum ALT and AST, inflammatory infiltrates in tissue and basophilic granules in tissue provide an assessment of toxicities related to the treatment. Hepatic steatosis, or accumulation of lipids in the liver, is assessed by routine histological analysis with oil red 0 stain and measurement of liver tissue triglycerides using a Triglyceride GPO Assay (Sigma-Aldrich, St. Louis, Mo.).
The results from the one month interval of the long term treatment are shown in Table 50 and are normalized to saline-treated animals for mRNA and to untreated baseline values for lipid levels. Total cholesterol, LDL-cholesterol, HDL-cholesterol, LDL particle concentration and triglyceride levels in serum were measured by nuclear magnetic resonance spectroscopy by Liposcience (Raleigh, N.C.). Additionally, the concentration of intact oligonucleotide in liver was measured by capillary gel electrophoresis and is presented as micrograms of oligonucleotide per gram of liver tissue. Each result represents the average of data from 4 animals (2 males and 2 females).
In a similar experiment, male and female Cynomolgous monkeys received an intravenous dose of ISIS 301012 at 4 mg/kg, every two days for the first week and every 4 days thereafter. Groups of animals were sacrificed after the first dose and the fourth dose, as well as 11, 15 and 23 days following the fourth and final dose. Liver RNA was isolated and apolipoprotein B mRNA levels were evaluated by real-time PCR as described herein. […] Furthermore, after 4 doses of ISIS 301012 at 4 mg/kg, target mRNA was reduced by approximately 85% and a 50% reduction in target mRNA was sustained for up to 16 days following the cessation of antisense oligonucleotide treatment.

In the case of “147764 (eG*eT*e[5mC]*e[5mC]*e[5mC]*dT*dG*dA*dA*dG*dA*dT*dG*dT*d[5mC]*eA*eA*eT*eG*e[5mC]) [compound 147764]”, the “apolipoprotein B mRNA levels” value (apolipoprotein B mRNA [1]) is reported as “able to lower” and the “mRNA % control ApoB” value (apolipoprotein B mRNA [1]; liver) is reported as 43.1 % control.
With “GTCCCTGAAGATGTCAATGC (2'-MOE gapmer, further chemistry not given here) [ISIS 147764]” the “mRNA Percent Inhibition” value (apolipoprotein B mRNA [2]; 5 mg/kg i.p. every three days) was 2%, the “mRNA Percent Inhibition” value (apolipoprotein B mRNA [2]; 25 mg/kg i.p. every three days) was 42% and the “mRNA Percent Inhibition” value (apolipoprotein B mRNA [2]; 50 mg/kg i.p. every three days) was 70%. For the same substance, the “reduction of target mRNA levels in liver” value (apolipoprotein B mRNA [3]; 5 mg/kg i.p. every three days) was 15%, the “reduction of target mRNA levels in liver” value (apolipoprotein B mRNA [3]; 25 mg/kg i.p. every three days) was 75% and the “reduction of target mRNA levels in liver” value (apolipoprotein B mRNA [3]; 50 mg/kg i.p. every three days) was 88%.
With “ISIS 301012: SEQ ID NO: 247, antisense oligonucleotide targeted to human apolipoprotein B (antisense GCCTCAGTCTGCTTCGCACC; chemistry not given here)” the “expression of the mouse apolipoprotein B protein in liver (immunoblot)” value [4] was “does not change significantly”, the “expression of the mouse apolipoprotein B protein in serum (immunoblot)” value [4] was “no significant change” and the “expression of human apolipoprotein B, B-100 and B-48 forms, in liver (immunoblot)” value [5] was “reduction”. The “human apolipoprotein B protein in serum, B-100 and B-48 forms (immunoblot)” value ([5]; 2, 4, 6 and 12 weeks of treatment) was “lowered”, the “AST and ALT levels in serum” value [6] was “increased, yet did not exceed normal levels” and the “reduction in target mRNA in liver” value (apolipoprotein B mRNA [7]; Cynomolgous monkeys, after 4 doses at 4 mg/kg i.v.) was “approximately 85%”. For the same substance, the “reduction in apolipoprotein B mRNA expression in liver” value (apolipoprotein B mRNA [7]; Cynomolgous monkeys, single intravenous dose of 4 mg/kg) was 40%, the “reduction in target mRNA in liver sustained after cessation” value (apolipoprotein B mRNA [7]; Cynomolgous monkeys, up to 16 days following cessation of treatment (4 doses, 4 mg/kg)) was 50% and the “apolipoprotein B expression” value (apolipoprotein B mRNA [7]; lean Cynomolgous monkeys, one month interval) was “inhibits apolipoprotein B expression in a dose-dependent manner”. For the same substance, the “apolipoprotein B expression % change normalized to saline” value (apolipoprotein B mRNA [7]; lean Cynomolgous monkeys, intravenous 2 mg/kg) was −45%, the “apolipoprotein B expression % change normalized to saline” value (apolipoprotein B mRNA [7]; lean Cynomolgous monkeys, intravenous 4 mg/kg) was −76% and the “apolipoprotein B expression % change normalized to saline” value (apolipoprotein B mRNA [7]; lean Cynomolgous monkeys, intravenous 12 mg/kg) was −96%. For the same substance, the “apolipoprotein B expression % change normalized to saline” value (apolipoprotein B mRNA [7]; lean Cynomolgous monkeys, subcutaneous 20 mg/kg) was −94%.
